US20140357579A1, “SYNTHETIC PEPTIDE AMIDES AND DIMERS THEREOF” (priority 2006, published 2014)
Read-outs that look alike come from different tables or passages of the source. Bridge positions count the residues as written; N and C are the ends. Square brackets hold non-standard residues; d marks the D form. Side chains are listed from the residue outwards. Peptide text beside a SMILES is read from it. I, II: the chains in the order shown. dAgb = N=C(N)NCC[C@@H](N)C(=O)O; dAgp = N=C(N)NC[C@@H](N)C(=O)O; dNle = CCCC[C@@H](N)C(=O)O; dOrn = NCCC[C@@H](N)C(=O)O; Api = NC1(C(=O)O)CCNCC1; Inp = O=C(O)C1CCNCC1

Assays:
[1] = molecular target: T1, mouse kappa opioid receptor (mKOR) (Mus musculus, UniProt P33534); assay: Inhibition of forskolin-stimulated cAMP production in R1.G1 cells (TR-FRET cAMP immunoassay); type: cell-based; conditions: for EC50: inhibition of forskolin-stimulated cAMP
T1 construct: a mouse thymoma cell line that expresses only the kappa-opioid receptor and no other opioid receptor subtype; host or cells: R1.G1 mouse thymoma cells

[2] = molecular target: T2, human kappa opioid receptor (hKOR) (Homo sapiens, UniProt P41145); assay: NFAT-luciferase reporter assay in HEK-293 cells transfected with human kappa opioid receptor and chimeric G-protein; type: cell-based; conditions: for hKOR Efficacy(%) / Emax: percent maximal activation compared to full induction by known kappa agonists; for EC50: transfected HEK-293 cells, luciferase reporter, read-out: hKOR EC50; for Emax: HEK293, read-out: hKOR Efficacy(%)
T2 construct: expressed in transfected cells; host or cells: HEK-293 cells (ATCC), transient transfection with pcDNA3-hOPRK1

[3] = R1.G1 cells, read-out: mKOR Efficacy(%)
[4] = R1.G1 cells, read-out: mKOR EC50
[5] = read-out: mKOR Efficacy(%), R1.G1 cells

T2 sequence (P41145 whole entry): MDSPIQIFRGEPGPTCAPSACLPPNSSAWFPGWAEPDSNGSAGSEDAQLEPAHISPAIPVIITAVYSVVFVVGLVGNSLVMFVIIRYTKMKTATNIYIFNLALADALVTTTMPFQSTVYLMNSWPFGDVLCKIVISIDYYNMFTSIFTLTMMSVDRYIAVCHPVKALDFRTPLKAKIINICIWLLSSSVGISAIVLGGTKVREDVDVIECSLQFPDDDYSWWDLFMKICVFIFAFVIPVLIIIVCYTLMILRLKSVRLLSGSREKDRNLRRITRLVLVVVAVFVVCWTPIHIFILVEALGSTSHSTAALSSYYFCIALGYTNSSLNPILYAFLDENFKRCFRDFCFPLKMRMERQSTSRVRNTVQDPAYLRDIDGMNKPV
T1 sequence (P33534 whole entry): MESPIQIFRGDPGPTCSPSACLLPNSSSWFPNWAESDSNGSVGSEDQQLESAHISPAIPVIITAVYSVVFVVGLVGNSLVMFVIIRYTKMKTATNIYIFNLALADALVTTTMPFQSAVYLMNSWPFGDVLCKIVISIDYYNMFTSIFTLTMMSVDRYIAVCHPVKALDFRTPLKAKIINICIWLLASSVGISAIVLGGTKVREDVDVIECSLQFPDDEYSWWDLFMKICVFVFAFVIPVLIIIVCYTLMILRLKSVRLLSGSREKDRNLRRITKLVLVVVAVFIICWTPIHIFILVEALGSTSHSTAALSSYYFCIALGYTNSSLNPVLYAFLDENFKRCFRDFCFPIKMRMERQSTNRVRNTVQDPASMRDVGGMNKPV

| SMILES | mKOR Efficacy(%) ([1]; R1.G1 cells) | EC50 [2] [nM] | also measured |
| --- | --- | --- | --- |
| CC(C)C[C@@H](NC(=O)[C@@H](Cc1ccccc1)NC(=O)[C@H](N)Cc1ccccc1)C(=O)N[C@H](CCCN)C(=O)NCCN1CCN(CC(=O)O)CC1 [Compound 1, D-Phe-D-Phe-D-Leu-D-Orn-[4-(2-aminoethyl)-1-carboxymethyl-piperazine]-OH] | 98 | 0.49 | hKOR Efficacy(%) [2]: 102% |
| CC(C)C[C@@H](NC(=O)[C@@H](Cc1ccccc1)NC(=O)[C@H](N)Cc1ccccc1)C(=O)N[C@H](CCCN)C(=O)N1CCC(CC(=O)O)CC1 [Compound 2, D-Phe-D-Phe-D-Leu-D-Orn-[4-Carboxymethyl-piperidine]-OH] | 97 | 0.13 | hKOR Efficacy(%) [2]: 99% |
| CCCC[C@@H](NC(=O)[C@@H](Cc1ccccc1)NC(=O)[C@H](N)Cc1ccccc1)C(=O)N[C@H](CCCNC(=N)N)C(=O)N1CCC[C@@H]1C(=O)O [Compound 3, D-Phe-D-Phe-D-Nle-D-Arg-D-Pro-OH] (H-[dF][dF][dNle][dR][dP]-OH; N-terminus assumed) | 88 |  |  |
| CC(C)C[C@@H](NC(=O)[C@@H](Cc1ccccc1)NC(=O)[C@H](N)Cc1ccccc1)C(=O)N[C@H](CCCN)C(=O)N[C@@H]1CN[C@H](C(=O)O)C1 [Compound 5, D-Phe-D-Phe-D-Leu-D-Orn-[(2S,4S)-4-Amino-pyrrolidine-2-carboxylic acid]-OH] | 96 |  |  |
| CC(C)C[C@@H](NC(=O)[C@@H](Cc1ccccc1)NC(=O)[C@H](N)Cc1ccccc1)C(=O)N[C@H](CCCN)C(=O)N1CCC(N)(C(=O)O)CC1 [Compound 6, D-Phe-D-Phe-D-Leu-D-Orn-[omega(4-Aminopiperidine-4-carboxylic acid)]-OH] | 100 | 0.17 | hKOR Efficacy(%) [2]: 107% |
| CC(C)C[C@@H](NC(=O)[C@@H](Cc1ccccc1)NC(=O)[C@H](N)Cc1ccccc1)C(=O)N[C@H](CCCN)C(=O)N1CCC(CC(N)C(=O)O)CC1 (stereo partly drawn) [Compound 7, D-Phe-D-Phe-D-Leu-D-Orn-[ω(D/L-2-Amino-3-(4-N-piperidinyl)propionic acid)]-OH] | 102 | 0.14 | hKOR Efficacy(%) [2]: 104% |
| CC(C)C[C@@H](NC(=O)[C@@H](Cc1ccccc1)NC(=O)[C@H](N)Cc1ccccc1)C(=O)N[C@H](CCCN)C(=O)N1CCNC(C(=O)O)C1 (stereo partly drawn) [Compound 8, D-Phe-D-Phe-D-Leu-D-Orn-[omega(D/L-piperazine-2-carboxylic acid)]-OH] | 102 | 0.16 | hKOR Efficacy(%) [2]: 93% |
| CC(C)C[C@@H](NC(=O)[C@@H](Cc1ccccc1)NC(=O)[C@H](N)Cc1ccccc1)C(=O)N[C@H](CCCN)C(=O)N1CCC(C(=O)O)CC1 [Compound 9, D-Phe-D-Phe-D-Leu-D-Orn-[Isonipecotic acid]-OH] (H-[dF][dF][dL][dOrn][Inp]-OH; N-terminus assumed) | 92 | 0.39 | Emax [2]: 134% |
| CC(C)C[C@@H](NC(=O)[C@@H](Cc1ccccc1)NC(=O)[C@H](N)Cc1ccccc1)C(=O)N[C@H](CCCN)C(=O)N1CCC(N2CCC[C@H]2C(=O)O)CC1 [Compound 10, D-Phe-D-Phe-D-Leu-D-Orn-[N-(4-piperidinyl)-L-proline]-OH] | 99 | 0.12 | hKOR Efficacy(%) [2]: 92% |
| CC(C)C[C@@H](NC(=O)[C@@H](Cc1ccccc1)NC(=O)[C@H](N)Cc1ccccc1)C(=O)N[C@H](CCCN)C(=O)N1CCCNCC1 [Compound 11, D-Phe-D-Phe-D-Leu-D-Orn-[homopiperazine amide]] | 100 | 0.12 | Emax [2]: 90% |
| CC(C)C[C@@H](NC(=O)[C@@H](Cc1ccccc1)NC(=O)[C@H](N)Cc1ccccc1)C(=O)N[C@H](CCCN)C(=O)N1CCC(CCCC(=O)O)CC1 [Compound 12, D-Phe-D-Phe-D-Leu-D-Orn-[4-(4-piperidinyl)-butanoic acid]-OH] | 100 | 0.3 | Emax [2]: 99% |
| CC(C)C[C@@H](NC(=O)[C@@H](Cc1ccccc1)NC(=O)[C@H](N)Cc1ccccc1)C(=O)N[C@H](CCCN)C(=O)NCCN1CCN(CC(N)=O)CC1 [Compound 13, D-Phe-D-Phe-D-Leu-D-Orn-[4-(2-aminoethyl)-1-carboxymethyl-piperazine]-NH2] | 96 |  | hKOR Efficacy(%) [2]: 96% |
| CC(C)C[C@@H](NC(=O)[C@@H](Cc1ccccc1)NC(=O)[C@H](N)Cc1ccccc1)C(=O)N[C@H](CCCN)C(=O)N1CCC(N2CCC[C@H]2C(N)=O)CC1 [Compound 14, D-Phe-D-Phe-D-Leu-D-Orn-[N-(4-piperidinyl)-L-proline]-NH2] | 96 | 0.21 | Emax [2]: 105% |
| CC(C)C[C@@H](NC(=O)[C@@H](Cc1ccccc1)NC(=O)[C@H](N)Cc1ccccc1)C(=O)N[C@H](CCCN)C(=O)NC1CCN(CC(N)=O)CC1 [Compound 15, D-Phe-D-Phe-D-Leu-D-Orn-[4-Amino-1-carboxymethyl-piperidine]-NH2] | 93 |  |  |
| CC(C)C[C@@H](NC(=O)[C@@H](Cc1ccccc1)NC(=O)[C@H](N)Cc1ccccc1)C(=O)N[C@H](CCCN)C(=O)N1CCCN(C(=N)N)CC1 [Compound 16, D-Phe-D-Phe-D-Leu-D-Orn-[4-Amidinohomopiperazine amide]] |  | 0.12 | Emax [1, 3]: 99%; Emax [2]: 90% |
| CNCCC[C@@H](NC(=O)[C@@H](CC(C)C)NC(=O)[C@@H](Cc1ccccc1)NC(=O)[C@H](N)Cc1ccccc1)C(=O)N1CCCN(C(=N)N)CC1 [Compound 21, D-Phe-D-Phe-D-Leu-(δ-Me)D-Orn-[4-Amidinohomopiperazine amide]] | 97 |  |  |
| CC(C)C[C@@H](NC(=O)[C@@H](Cc1ccccc1)NC(=O)[C@H](N)Cc1ccccc1)C(=O)N[C@H](CCCNC(C)C)C(=O)N1CCCN(C(=N)N)CC1 [Compound 22, D-Phe-D-Phe-D-Leu-(δ-iPr)D-Orn-[4-Amidinohomopiperazine amide]] | 97 |  |  |
| CNCCC[C@@H](NC(=O)[C@@H](CC(C)C)NC(=O)[C@@H](Cc1ccccc1)NC(=O)[C@H](N)Cc1ccccc1)C(=O)N1CCCNCC1 [Compound 23, D-Phe-D-Phe-D-Leu-(-Me)D-Orn-[homopiperazine amide]] | 95 |  |  |
| CC(C)C[C@@H](NC(=O)[C@@H](Cc1ccccc1)NC(=O)[C@H](N)Cc1ccccc1)C(=O)N[C@H](CCCNC(C)C)C(=O)N1CCCNCC1 [Compound 24, D-Phe-D-Phe-D-Leu-(6-iPr)D-Orn-[homopiperazine amide]] | 96 |  |  |
| CC(C)C[C@@H](N)C(=O)N[C@H](CCCN)C(=O)N[C@@H](CCCCNC(=O)[C@@H](CCCN)NC(=O)[C@@H](CC(C)C)NC(=O)[C@@H](Cc1ccccc1)NC(=O)[C@H](N)Cc1ccccc1)C(=O)O [Compound 39, D-Phe-D-Phe-D-Leu-D-Orn-[eLys(D-Orn-D-Leu-H)]-OH] |  |  | EC50 [1, 4]: 67.3 nM; Emax [1, 3]: 35% |
| CC(C)C[C@@H](N)C(=O)N[C@H](CCCN)C(=O)N[C@H](CCCCNC(=O)[C@@H](CCCN)NC(=O)[C@@H](CC(C)C)NC(=O)[C@@H](Cc1ccccc1)NC(=O)[C@H](N)Cc1ccccc1)C(=O)O [Compound 46] |  |  | EC50 [1, 4]: 0.12 nM; Emax [1, 3]: 95% |
| CC(C)C[C@@H](NC(=O)[C@H](N)Cc1ccccc1)C(=O)N[C@H](CCCN)C(=O)N[C@H](CCCCNC(=O)[C@@H](CCCN)NC(=O)[C@@H](CC(C)C)NC(=O)[C@@H](Cc1ccccc1)NC(=O)[C@H](N)Cc1ccccc1)C(=O)O [Compound 47] |  |  | EC50 ([1]; mKOR EC50 (nM), R1.G1 cells): 0.05 nM; Emax [1, 5]: 91% |
| CC(C)C[C@@H](NC(=O)[C@@H](Cc1ccccc1)NC(=O)[C@H](N)Cc1ccccc1)C(=O)N[C@H](CCCN)C(=O)NCCCC[C@@H](NC(=O)[C@@H](CCCN)NC(=O)[C@@H](CC(C)C)NC(=O)[C@@H](Cc1ccccc1)NC(=O)[C@H](N)Cc1ccccc1)C(=O)O [Compound 48] (H-[dF][dF][dL][dOrn][dK]([dOrn-dL-dF-dF])-OH) |  |  | EC50 ([1]; mKOR EC50 (nM), R1.G1 cells): 0.34 nM; Emax [1, 5]: 85% |
| CC(C)C[C@@H](NC(=O)[C@@H](Cc1ccccc1)NC(=O)[C@H](N)Cc1ccccc1)C(=O)N[C@H](CCCNC(C)C)C(=O)NC1(C(=O)O)CCN(C(=O)[C@@H](CCCNC(C)C)NC(=O)[C@@H](CC(C)C)NC(=O)[C@@H](Cc2ccccc2)NC(=O)[C@H](N)Cc2ccccc2)CC1 [Compound 49] |  |  | Emax [1, 5]: 50% |
| CC(C)C[C@@H](NC(=O)[C@@H](Cc1ccccc1)NC(=O)[C@H](N)Cc1ccccc1)C(=O)N[C@H](CNC(=N)N)C(=O)NC1(C(=O)O)CCN(C(=O)[C@@H](CNC(=N)N)NC(=O)[C@@H](CC(C)C)NC(=O)[C@@H](Cc2ccccc2)NC(=O)[C@H](N)Cc2ccccc2)CC1 [Compound 50] (H-[dF][dF][dL][dAgp][Api]([dAgp-dL-dF-dF])-OH) |  |  | EC50 ([1]; mKOR EC50 (nM), R1.G1 cells): 56.7 nM; Emax [1, 5]: 77% |
| CC(C)C[C@@H](NC(=O)[C@@H](Cc1ccccc1)NC(=O)[C@H](N)Cc1ccccc1)C(=O)N[C@H](CCNC(=N)N)C(=O)NC1(C(=O)O)CCN(C(=O)[C@@H](CCNC(=N)N)NC(=O)[C@@H](CC(C)C)NC(=O)[C@@H](Cc2ccccc2)NC(=O)[C@H](N)Cc2ccccc2)CC1 [Compound 51, 1N,4N-bis-(D-Phe-D-Phe-D-Leu-D-Nar)-4amino-4carboxylic piperidine] (H-[dF][dF][dL][dAgb][Api]([dAgb-dL-dF-dF])-OH) |  |  | EC50 ([1]; mKOR EC50 (nM), R1.G1 cells): 95.8 nM; Emax [1, 5]: 60% |
| CC(C)C[C@@H](NC(=O)[C@@H](Cc1ccccc1)NC(=O)[C@H](N)Cc1ccccc1)C(=O)N[C@@H]1CCCCNC(=O)CNC(=O)[C@H](NC(=O)[C@@H](CC(C)C)NC(=O)[C@@H](Cc2ccccc2)NC(=O)[C@H](N)Cc2ccccc2)CCCCNC(=O)CNC1=O [Compound 52, D-Phe-D-Phe-D-Leu-(D-Lys-GlyLactam)2-D-Leu-D-Phe-D-Phe] (I: H-[dF][dF][dL][dK]G / II: H-[dF][dF][dL][dK]G; amide I:4-II:C, I:C-II:4 (inferred); N-terminus assumed) |  |  | Emax [1, 5]: 76% |
